Measured values as given in patent US6660768B2, “Parasiticidal compositions and methods of use” (Schering-Plough Animal Health Corporation, priority 2001, dated 2003).

Legend:
[1] = Example 3B: solubility of permethrin in PM (propylene glycol monomethyl ether), DM (diethylene glycol monomethyl ether) and PM or DPM (dipropylene glycol monomethyl ether)/d-limonene mixtures at low temperatures, seeded
Procedure: (§1) These solutions were poured into 100 mL tubes with screw top caps. These tubes were placed in the cold water bath and allowed to come to equilibrium at the temperature of the bath. […] The seeded preparations were then thoroughly shaken, replaced in the bath and allowed to remain in the bath for a 24 hour period. The preparations were then examined for crystallization, then again thoroughly agitated and replaced in the bath for an additional time period. Samples of the supernatant were removed after additional crystallization had occurred.
The solvent mixtures tested were: dipropylene glycol monomethyl ether/d-limonene and propylene glycol monomethyl ether/d-limonene.
These solvent mixtures were evaluated at ratios of 2:1, 1:1, 1:2, and then at 8:2 and 9:1 (the first number refers to one of the glycol ethers, the second number refers to d-limonene).

[2] = Example 3D: solubility of permethrin in propylene glycol monomethyl ether at 20° C. after crystallization at 0° C.; format: physicochemical
Procedure: The solution was placed in the bath, and continually stirred. The bath temperature was lowered to 0° C. After crystallization occurred in the solution, the bath temperature setting was raised to 20° C. and the stirred slurry was allowed to equilibrate over a three-day period. After this time, samples of the supernatant were pulled on consecutive days. The crystals were separated from the liquid layer by filtration, and the crystals were washed with petroleum ether. […] The crystals were washed to remove any residual solution that might contaminant their analysis.

[3] = Example 3A: relative solubility of permethrin in neat solvents, seeded solutions in cold bath, supernatant assayed
Procedure: as §1
After 24 hours the tubes were examined for the relative amount of crystallization that may have occurred in each of the solutions. Where crystallization had occurred, samples of the supernatant were pulled from the vials and the temperature of the bath was lowered to 15° C.
Samples were again taken for assay from the solutions of hexylene glycol and methyl Carbitol® (diethylene glycol monomethyl ether).

[4] = Example 3C: solubility of 30% permethrin in d-limonene/propylene glycol monomethyl ether mixtures at -15° C.; format: physicochemical; settings: initial 30% permethrin
Procedure: The temperature was regulated to −15° C. The solutions were placed in the bath and allowed to crystallize and reach equilibrium.

[5] = Diethylene Glycol Monomethyl Ether, Initial
[6] = Dipropylene Glycol Monomethyl Ether, Initial
[7] = Propylene Glycol Monomethyl Ether, Initial

CC1(C)C(C=C(Cl)Cl)C1C(=O)OCc1cccc(Oc2ccccc2)c1 (stereo not drawn) [permethrin]
% permethrin remaining in solution ([1]; DM, 10° C., Original % permethrin 60): 56.17%
% permethrin remaining in solution ([1]; DM, 20° C., Original % permethrin 50): 50.55%
% permethrin remaining in solution ([1]; DM, 20° C., Original % permethrin 55): 55.14%
% permethrin remaining in solution ([1]; DM, 20° C., Original % permethrin 60): 60.05%
% permethrin remaining in solution ([1]; DM, 20° C., Original % permethrin 65): 64.85%
% permethrin remaining in solution ([1]; DM, 20° C., Original % permethrin 75): 74.20%
% permethrin remaining in solution ([1]; DM, 25° C., Original % permethrin 50): 49.43%
% permethrin remaining in solution ([1]; DM, 25° C., Original % permethrin 55): 53.98%
% permethrin remaining in solution ([1]; DM, 25° C., Original % permethrin 60): 61.10%
% permethrin remaining in solution ([1]; DM, 25° C., Original % permethrin 65): 64.25%
% permethrin remaining in solution ([1]; DM, 25° C., Original % permethrin 75): 74.53%
% permethrin remaining in solution ([1]; PM, 5° C., Original % permethrin 50): 46.61%
% permethrin remaining in solution ([1]; PM, 5° C., Original % permethrin 55): 52.71%
% permethrin remaining in solution ([1]; PM, 5° C., Original % permethrin 60): 56.69%
% permethrin remaining in solution ([1]; PM, 5° C., Original % permethrin 65): 61.50%
% permethrin remaining in solution ([1]; PM, 5° C., Original % permethrin 75): 70.89%
% permethrin remaining in solution ([1]; PM, 10° C., Original % permethrin 60): 59.08%
% permethrin remaining in solution ([1]; PM, 10° C., Original % permethrin 65): 61.63%
% permethrin remaining in solution ([1]; PM, 10° C., Original % permethrin 75): 72.22%
% permethrin remaining in solution ([1]; PM, 20° C., Original % permethrin 50): 50.60%
% permethrin remaining in solution ([1]; PM, 20° C., Original % permethrin 55): 55.54%
% permethrin remaining in solution ([1]; PM, 20° C., Original % permethrin 60): 61.27%
% permethrin remaining in solution ([1]; PM, 20° C., Original % permethrin 65): 66.25%
% permethrin remaining in solution ([1]; PM, 20° C., Original % permethrin 75): 76.84%
% permethrin remaining in solution ([1]; PM, 25° C., Original % permethrin 50): 51.28%
% permethrin remaining in solution ([1]; PM, 25° C., Original % permethrin 55): 56.19%
% permethrin remaining in solution ([1]; PM, 25° C., Original % permethrin 60): 60.99%
% permethrin remaining in solution ([1]; PM, 25° C., Original % permethrin 65): 66.71%
% permethrin remaining in solution ([1]; PM, 25° C., Original % permethrin 75): 75.82%
% Permethrin ([2]; Assay of Crystals (filtered, washed), as the cis isomer): 100% as the cis isomer
% Permethrin ([2]; Initial Assay of 70% Solution in propylene glycol monomethyl ether): 72.86%
solubility of permethrin ([2]; in propylene glycol monomethyl ether, 20° C.): greater than 70%
% Permethrin ([2]; supernatant, propylene glycol monomethyl ether, 20° C., 2nd Day after Equilibrium Reached): 72.96%
% Permethrin ([2]; supernatant, propylene glycol monomethyl ether, 20° C., Assay after Equilibrium Reached): 72.93%
Permethrin ([3]; Diethylene Glycol Monomethyl Ether, 20° C.): 75.02%
Permethrin ([3]; Diethylene Glycol Monomethyl Ether, 25° C.): 74.90%
Cis Isomer [3, 5]: 28.79%
Permethrin [3, 5]: 69.70%
Trans Isomer [3, 5]: 40.91%
Permethrin ([3]; Diethylene Glycol Monomethyl Ether, […] C.): 74.44%
Permethrin ([3]; Dipropylene Glycol Monomethyl Ether, 15° C.): 73.83%
Permethrin ([3]; Dipropylene Glycol Monomethyl Ether, 20° C.): 75.15%
Permethrin ([3]; Dipropylene Glycol Monomethyl Ether, 25° C.): 75.39%
Cis Isomer [3, 6]: 29.41%
Permethrin [3, 6]: 70.35%
Trans Isomer [3, 6]: 40.94%
solubility among the tested solvents ([3]; Examples 3A-3D, low temperatures, order: d-limonene, PM, DPM, diethylene glycol monomethyl ether, hexylene glycol): greatest solubility in d-limonene
Permethrin ([3]; Hexylene Glycol, 25° C.): 75.02%
Cis Isomer ([3]; Hexylene Glycol, Initial): 29.77%
Permethrin ([3]; Hexylene Glycol, Initial): 71.09%
Trans Isomer ([3]; Hexylene Glycol, Initial): 41.32%
Permethrin ([3]; Hexylene Glycol, […] C.): 74.37%
Permethrin ([3]; Propylene Glycol Monomethyl Ether, 15° C.): 74.85%
Permethrin ([3]; Propylene Glycol Monomethyl Ether, 20° C.): 74.84%
Permethrin ([3]; Propylene Glycol Monomethyl Ether, 25° C.): 75.66%
Cis Isomer [3, 7]: 29.55%
Permethrin [3, 7]: 70.78%
Trans Isomer [3, 7]: 40.22%
Permethrin ([3]; d-limonene, 20° C.): 74.84%
Permethrin ([3]; d-limonene, 25° C.): 75.29%
Cis Isomer ([3]; d-limonene, Initial): 29.54%
Permethrin ([3]; d-limonene, Initial): 70.43%
Trans Isomer ([3]; d-limonene, Initial): 40.89%
% permethrin in solution ([4]; 0% d-limonene in formula): 23.57%
% permethrin in solution ([4]; 20% d-limonene in formula): 24.78%
% permethrin in solution ([4]; 33% d-limonene in formula): 25.52%
% permethrin in solution ([4]; 50% d-limonene in formula): 27.20%
% permethrin in solution ([4]; 67% d-limonene in formula): 27.51%
% permethrin in solution ([4]; 100% d-limonene in formula): 25.93%
